Laboratory results published in publication PMC6171417, “Carbonic anhydrase inhibition with a series of novel benzenesulfonamide-triazole conjugates” (Journal of Enzyme Inhibition and Medicinal Chemistry, 2018).
Read-outs that look alike come from different tables or passages of the source.

Legend:
ACHN = assay: cells; parameters: species or system NCI human tumour cell line panel; NCI one-dose anti-proliferative screen, human tumour cell line panel, growth inhibition percent (GI%); conditions: Homo sapiens, ACHN; growth inhibition (GI%), single dose
COLO 205 = assay: cells; parameters: species or system NCI human tumour cell line panel; NCI one-dose anti-proliferative screen, human tumour cell line panel, growth inhibition percent (GI%); conditions: Homo sapiens, COLO 205; growth inhibition (GI%), single dose
SF-539 = assay: cells; parameters: species or system NCI human tumour cell line panel; NCI one-dose anti-proliferative screen, human tumour cell line panel, growth inhibition percent (GI%); conditions: Homo sapiens, SF-539; growth inhibition (GI%), single dose
TK-10 = assay: cells; parameters: species or system NCI human tumour cell line panel; NCI one-dose anti-proliferative screen, human tumour cell line panel, growth inhibition percent (GI%); conditions: Homo sapiens, TK-10; growth inhibition (GI%), single dose
786-0 [1] = assay: cells; parameters: species or system NCI human tumour cell line panel; conditions: Homo sapiens, 786-0; growth inhibition (GI%), single dose
hCA I = target: T1, hCA I (Homo sapiens, UniProt P00915); assay: stopped-flow CO2 hydrase assay; format: biochemical
T1 construct: gene CA1; recombinant, obtained in-house as reported earlier; cytosolic
Text: stopped-flow CO2 hydrase assay on hCA I

hCA IX = target: T2, hCA IX (Homo sapiens, UniProt Q16790); assay: stopped-flow CO2 hydrase assay; format: biochemical
T2 construct: gene CA9; recombinant, obtained in-house as reported earlier
Text: stopped-flow CO2 hydrase assay on hCA IX

hCA IV = target: T3, hCA IV (Homo sapiens, UniProt P22748); assay: stopped-flow CO2 hydrase assay; format: biochemical
T3 construct: gene CA4; recombinant, obtained in-house as reported earlier
Text: stopped-flow CO2 hydrase assay on hCA IV

hCA II = target: T4, hCA II (Homo sapiens, UniProt P00918); assay: stopped-flow CO2 hydrase assay; format: biochemical
T4 construct: gene CA2; recombinant, obtained in-house as reported earlier; cytosolic
Text: stopped-flow CO2 hydrase assay on hCA II

HCC-2998 = assay: cells; parameters: species or system NCI human tumour cell line panel; NCI one-dose anti-proliferative screen, human tumour cell line panel, growth inhibition percent (GI%); conditions: Homo sapiens, HCC 2998; growth inhibition (GI%), single dose
SK-MEL-28 = assay: cells; parameters: species or system NCI human tumour cell line panel; NCI one-dose anti-proliferative screen, human tumour cell line panel, growth inhibition percent (GI%); conditions: Homo sapiens, SK-MEL-28; growth inhibition (GI%), single dose
SK-MEL-2 = assay: cells; parameters: species or system NCI human tumour cell line panel; NCI one-dose anti-proliferative screen, human tumour cell line panel, growth inhibition percent (GI%); conditions: Homo sapiens, SK-MEL-2; growth inhibition (GI%), single dose
786-0 [2] = assay: cells; parameters: species or system NCI human tumour cell line panel; NCI one-dose anti-proliferative screen, human tumour cell line panel, growth inhibition percent (GI%); conditions: Homo sapiens, 786-0; growth inhibition (GI%), single dose
BT-549 = assay: cells; parameters: species or system NCI human tumour cell line panel; NCI one-dose anti-proliferative screen, human tumour cell line panel, growth inhibition percent (GI%); conditions: Homo sapiens, BT-549; growth inhibition (GI%), single dose
DU-145 = assay: cells; parameters: species or system NCI human tumour cell line panel; NCI one-dose anti-proliferative screen, human tumour cell line panel, growth inhibition percent (GI%); conditions: Homo sapiens, DU-145; growth inhibition (GI%), single dose
SF-295 = assay: cells; parameters: species or system NCI human tumour cell line panel; NCI one-dose anti-proliferative screen, human tumour cell line panel, growth inhibition percent (GI%); conditions: Homo sapiens, SF-295; growth inhibition (GI%), single dose
IGROV1 = assay: cells; parameters: species or system NCI human tumour cell line panel; NCI one-dose anti-proliferative screen, human tumour cell line panel, growth inhibition percent (GI%); conditions: Homo sapiens, IGROV-1; growth inhibition (GI%), single dose
MALME-3M = assay: cells; parameters: species or system NCI human tumour cell line panel; NCI one-dose anti-proliferative screen, human tumour cell line panel, growth inhibition percent (GI%); conditions: Homo sapiens, Malme-3M; growth inhibition (GI%), single dose
RXF 393 = assay: cells; parameters: species or system NCI human tumour cell line panel; NCI one-dose anti-proliferative screen, human tumour cell line panel, growth inhibition percent (GI%); conditions: Homo sapiens, RXF 393; growth inhibition (GI%), single dose
NCI-H460 = assay: cells; parameters: species or system NCI human tumour cell line panel; NCI one-dose anti-proliferative screen, human tumour cell line panel, growth inhibition percent (GI%); conditions: Homo sapiens, NCI-H460; growth inhibition (GI%), single dose
OVCAR-5 = assay: cells; parameters: species or system NCI human tumour cell line panel; NCI one-dose anti-proliferative screen, human tumour cell line panel, growth inhibition percent (GI%); conditions: Homo sapiens, OVCAR-5; growth inhibition (GI%), single dose

T3 sequence (P22748 19-284): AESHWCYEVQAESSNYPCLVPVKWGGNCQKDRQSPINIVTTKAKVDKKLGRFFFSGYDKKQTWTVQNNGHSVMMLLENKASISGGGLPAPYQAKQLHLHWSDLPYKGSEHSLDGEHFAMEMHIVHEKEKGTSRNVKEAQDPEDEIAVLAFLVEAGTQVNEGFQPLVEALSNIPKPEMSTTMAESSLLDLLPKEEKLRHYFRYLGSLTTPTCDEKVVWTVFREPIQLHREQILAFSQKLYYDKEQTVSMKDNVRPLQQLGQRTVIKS
T1 sequence (P00915 2-261): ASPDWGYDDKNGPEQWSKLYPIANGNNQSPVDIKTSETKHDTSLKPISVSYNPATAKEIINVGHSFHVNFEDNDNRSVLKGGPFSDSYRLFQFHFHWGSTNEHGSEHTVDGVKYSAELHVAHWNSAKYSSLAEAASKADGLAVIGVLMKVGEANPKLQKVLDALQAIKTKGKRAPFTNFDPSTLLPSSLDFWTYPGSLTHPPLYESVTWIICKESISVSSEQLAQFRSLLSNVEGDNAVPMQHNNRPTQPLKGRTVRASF

| SMILES | inhibition at 10 µM (ACHN) [%] | inhibition at 10 µM (SF-539) [%] | Ki (hCA I) [nM] | Ki (hCA IX) [nM] | Ki (hCA IV) [nM] | Ki (hCA II) [nM] | inhibition at 10 µM (SK-MEL-2) [%] | inhibition at 10 µM (BT-549) [%] | inhibition at 10 µM (SF-295) [%] | inhibition at 10 µM (IGROV1) [%] | inhibition at 10 µM (MALME-3M) [%] | other results |
| --- | --- | --- | --- | --- | --- | --- | --- | --- | --- | --- | --- | --- |
| N#Cc1nnn(-c2ccc(S(N)(=O)=O)cc2)c1N [compound 3, 3] | 1.3 | 1.9 | – | – | – | – | – | – | – | – | – | inhibition at 10 µM (COLO 205): 5.1%; inhibition at 10 µM (TK-10): 9.2% |
| N#Cc1nnn(-c2ccc(S(N)(=O)=O)cc2)c1NC(=O)CCl [compound 5, 5] | – | – | – | – | – | – | – | – | – | – | – | inhibition at 10 µM (786-0 [1]): 2.1% |
| CCn1c(=S)[nH]c2c(nnn2-c2ccc(S(N)(=O)=O)cc2)c1=N [compound 20, 4-(6-ethyl-7-imino-5-thioxo-4,5,6,7-tetrahydro-3H-[1,2,3]triazolo[4,5-d]pyrimidin-3-yl)benzenesulfonamide] | – | – | 909 | 242 | 875 | 930 | 8.2 | – | – | – | – | inhibition at 10 µM (HCC-2998): 2.2%; inhibition at 10 µM (SK-MEL-28): 0% |
| N#Cc1nnn(-c2ccc(S(N)(=O)=O)cc2)c1/N=C/c1ccc(Cl)cc1 [compound 9, 9] | – | – | – | – | – | – | – | 11.3 | 0.3 | – | – | inhibition at 10 µM (786-0 [2]): 6.1%; inhibition at 10 µM (DU-145): 1%; inhibition at 10 µM (TK-10): 7.6% |
| N#Cc1nnn(-c2ccc(S(N)(=O)=O)cc2)c1NCC(=O)c1ccccc1 [compound 7, 7] | 0.6 | – | – | – | – | – | 2.2 | 2 | – | 0.5 | 3.6 | – |
| N#Cc1c(-c2ccc(Cl)cc2)nc2c(nnn2-c2ccc(S(N)(=O)=O)cc2)c1N [compound 16, 4-(7-amino-5-(4-chlorophenyl)-6-cyano-3H-[1,2,3]triazolo[4,5-b]pyridin-3-yl)benzenesulfonamide] | – | – | 605 | 42.6 | 788 | 169 | – | – | 5.7 | 16.4 | – | inhibition at 10 µM (RXF 393): 17.8% |
| CN(C)c1ccc(-c2nc3c(nnn3-c3ccc(S(N)(=O)=O)cc3)c(N)c2C#N)cc1 [compound 17, 4-(7-amino-6-cyano-5-(4-(dimethylamino)phenyl)-3H-[1,2,3]triazolo[4,5-b]pyridin-3-yl)benzenesulfonamide] | 9.3 | 2.7 | 683 | – | 473 | 56.8 | 2.3 | 0.3 | 3.1 | 12.1 | 0.4 | Ki (hCA IX; CO2 […], […] Hepes pH […] Na2SO4, […] phenol red, […] min pre-incubation at room temperature): 35.1 nM; inhibition at 10 µM (COLO 205): 17%; inhibition at 10 µM (HCC-2998): 3.9%; inhibition at 10 µM (NCI-H460): 0.9%; inhibition at 10 µM (OVCAR-5): 3.4% |
| Nc1nc(=S)[nH]c2c1nnn2-c1ccc(S(N)(=O)=O)cc1 [compound 18, 4-(7-amino-5-thioxo-4,5-dihydro-3H-[1,2,3]triazolo[4,5-d]pyrimidin-3-yl)benzenesulfonamide] | – | – | 955 | 272 | 489 | 732 | – | – | – | – | – | – |
| N#Cc1nnn(-c2ccc(S(N)(=O)=O)cc2)c1NS(=O)(=O)c1ccccc1 [compound 11, N-(4-cyano-1-(4-sulfamoylphenyl)-1H-1,2,3-triazol-5-yl)benzenesulfonamide] | – | 3.2 | 5550 | 144 | 4520 | 356 | – | – | – | 3.3 | 1.2 | – |
